These results are taken from ChEMBL document CHEMBL4616630, “Amide-Iminoate Isomerism in Antineuroinflammatory Isoquinoline Alkaloids from Stephania cepharantha” (J Nat Prod, 2020).

The assay deals with BV-2. Put plainly: Ant-inflammatory LPS-induced mouse BV2 cells assessed as reduction in NO production after 24 hrs by Griess reagent based assay. The conditions noted are these: BV-2, 24 h. It is filed as functional, cell-based.

Turning to `COC1=C2[C@H]3Cc4ccc(OC)c(O)c4[C@]2(CCN3C=O)C[C@H](OC(C)=O)[C@@H]1O`, the 50% inhibitory concentration (IC50) is over 100 µM.

On to `COc1cc2c3c(c1OC)C1(C=CC(=O)C=C1)C[C@H]3N(C=O)CC2`, for which the IC50 is over 100 µM.

As to `COC1=C2[C@H]3Cc4ccc(OC)c(O)c4[C@]2(CCN3C=O)C[C@H](OC(C)=O)[C@@H]1OC(C)=O`, the IC50 is over 100 µM.

In the case of `COC1=C2[C@H]3Cc4ccc(OC)c(O)c4[C@]2(CCN3C=O)C[C@H](O)[C@@H]1OC(C)=O`, the IC50 is over 100 µM.

For the molecule `COC1=C2[C@H]3Cc4ccc(OC)c(O)c4[C@]2(CCN3C=O)C[C@H](O)[C@@H]1O`, the IC50 turned out to be 37.3 µM.

For `COc1ccc2cc1Oc1ccc(cc1)C[C@H]1c3c(cc4c(c3Oc3cc5c(cc3OC)CCN(C=O)[C@@H]5C2)OCO4)CCN1C`, the IC50 came to 12 µM.

In the case of `O=CN1CCc2cc3c(c4c2[C@H]1Cc1cc(O)ccc1-4)OCO3`, the IC50 is over 100 µM.

Take `CN(C)c1ccc(O)c2c1C[C@H]1C[C@H]3[C@H](N(C)C)C(O)=C(C(N)=O)C(=O)[C@@]3(O)C(O)=C1C2=O` [MINOCYCLINE]: the IC50 was 17.5 µM.

Regarding `COc1ccc2cc1Oc1ccc(cc1)C[C@H]1c3cc(c(OC)cc3CCN1C=O)Oc1c(OC)c(OC)cc3c1[C@@H](C2)N(C)CC3`, the IC50 amounted to 12.6 µM.
